From patent US8193364B2, “Insecticidal N-substituted (6-haloalkylpyridin-3-yl)-alkyl sulfoximines” (Dow AgroSciences, LLC., priority 2006, dated 2012)

How the values were obtained:
Assay type in all cases: in vivo
[1] = test system: Brown Planthopper (Nilaparvata lugens); experiment: Brown planthopper root-uptake systemic assay on rice
Procedure: A foliar spray assay and a root-uptake systemic assay were performed on both brown planthopper and green leafhopper. Four-week-old rice seedlings were submerged in 3-cm depth of water in the bottom portion (high 5 cm, diameter 3 cm) of a 2-part glass cylinder (high 18 cm, diameter 3 cm). A metal screen was used to hold the seedlings within the bottom portion. Scotch tape was used to bind the two portions of the cylinder after setting up the seedlings. A metal cap was used to cover the cylinder. There were 4 cylinders for each treatment. The test compound was dissolved in acetone to make a 10,000 ppm stock solution. For the foliar spray assay, this stock solution was diluted with water to make 10, 2.5, 0.31, 0.08 and 0.02 ppm test solutions. A volume of 0.5 ml of a test solution or solvent blank as check was sprayed into the glass cylinder. For systemic test, the stock solution was incorporated at final test concentrations of 10, 2.5, 0.31, 0.08 and 0.02 ppm in the water in which rice seedlings were submerged. In both foliar spray and systemic tests, five laboratory-reared 3rd instar nymphs of brown planthopper or green leafhopper were introduced into each cylinder 3 hr after insecticide application. The treated test units were kept in a growth chamber with conditions set as followings: Temperature 28±0.5° C.; Relative humidity 70±0.5%; Photoperiod […].

[2] = test system: Green Peach Aphid (Myzus persicae); experiment: Green peach aphid foliar spray assay on cabbage; conditions: 72 h, read-out: % Control at ppm, foliar spray, green peach aphid on cabbage
Procedure: Cabbage seedlings grown in 3-inch pots, with 2-3 small (3-5 cm) true leaves, were used as test substrate. The seedlings were infested with 20-50 green peach aphids (wingless adult and nymph) 2-3 days prior to chemical application. Four seedlings were used for each treatment. Compounds (2 mg) were dissolved in 2 ml of acetone:methanol (1:1) solvent, forming stock solutions of 1000 ppm. The stock solutions were then diluted with a diluent consisting 80 parts of 0.025% Tween 20 in […] and 20 parts of acetone:methanol (1:1). A hand-held Devilbiss sprayer was used for spraying the test solutions to both sides of cabbage leaves until runoff. Reference plants (solvent check) were sprayed with the diluent only. Treated plants were held in a holding room for three days at approximately 23° C. and 40% RH prior to grading. Evaluation was conducted by counting the number of live aphids per plant under a microscope. Insecticidal activity was measured by using Abbott's correction formula: Corrected % Control=100*(X−Y)/X • where X=No. of live aphids on solvent check plants • Y=No. of live aphids on treated plants The Corrected % Control values from assays are given in Table 2.

[3] = test system: Cat Flea (Ctenocephalides felis); experiment: Cat flea filter wool assay; conditions: 48-hour observation
Procedure: Compound 2 was evaluated in a dose response series to establish the range of activity of the test compound. Technical material was dissolved in acetone and diluted with the same solvent to obtain the test concentrations. Bioassays were conducted by treating polyester aquarium filter wool with 1.0 ml of the test solution, thoroughly saturating the substrate and allowing it to dry for at least 1 hour. The dry filter wool was then placed into 10 cm plastic Petri dishes and covered with the lid. Each treatment was replicated 5 times. Approximately 15 unfed cat flea adults were placed into each replicate of each dosage being evaluated. Mortality was assessed at 2, 8, 24 and 48 hours after introduction of the fleas into the test system. The mean percent mortality for each dosage group and time interval was determined and results from the 48-hour observation are presented in Table 9.

[4] = test system: Eastern Subterranean Termite (Reticulitermes flavipes); experiment: Eastern subterranean termite filter paper assay
Procedure: Activity of Compound 2 was evaluated for its activity on Eastern subterranean termite. Technical material of the test compound was formulated in acetone on a wt/wt basis to deliver 1000, 500, 200, 50, 12.5, 3.12 and 0.78 ppm to 42.5 mm Whatman No. 1 filter papers per 200 ul of pipetted solution. Each test concentration was applied to six filter papers (6 reps). Six acetone-only control units and six DI water-only control units were also prepared. The filter papers were dried overnight in the fume hood before they were placed into 60×15 mm Fisher Brand plastic Petri dishes. A volume of 200 ul DI water was pipetted onto each filter paper at the time of test set-up, just prior to infesting with termites. Ten worker termites were added to each Petri dish and covered. The infested Petri dishes were put in the laboratory Conviron at 28° C. and 60% RH. Termite mortality was recorded at 1, 2, 4, 7, and 10 days after infestation (DAI). Throughout the duration of the test, an average of 150 ul of DI water was added daily to the filter papers to retain moisture.

SMILES: CC(c1ccc(C(F)(F)F)nc1)S(C)(=O)=NC#N (centres unmarked) [Compound 2, [1-(6-trifluoromethylpyridin-3-yl)ethyl](methyl)-oxido-λ^4-sulfanylidenecyanamide]
- % Control at ppm against brown planthopper ([1]; 0.02 ppm in water): F (Less than 50)
- % Control at ppm against brown planthopper ([1]; 0.08 ppm in water): C (70-79)
- % Control at ppm against brown planthopper ([1]; 0.31 ppm in water): A (90-100)
- % Control at ppm against brown planthopper ([1]; 2.5 ppm in water): A (90-100)
- % Control at ppm against brown planthopper ([1]; 10 ppm in water): A (90-100)
- pest or weed control at 0.195 ppm [2]: 80 to 89%
- pest or weed control at 0.781 ppm [2]: 90 to 100%
- pest or weed control at 3.125 ppm [2]: 90 to 100%
- mortality at 5 ppm ([3]; 5 ppm): 18%
- mortality at 50 ppm ([3]; 50 ppm): 25%
- mortality at 500 ppm ([3]; 500 ppm): 40%
- mortality at 5000 ppm ([3]; 5,000 ppm): 57%
- mortality at 0.78 ppm ([4]; 1 DAI): 7%
- mortality at 0.78 ppm ([4]; 2 DAI): 17%
- mortality at 0.78 ppm ([4]; 4 DAI): 58%
- mortality at 0.78 ppm ([4]; 7 DAI): 73%
- mortality at 0.78 ppm ([4]; 10 DAI): 80%
- mortality at 3.13 ppm ([4]; 1 DAI): 25%
- mortality at 3.13 ppm ([4]; 2 DAI): 48%
- mortality at 3.13 ppm ([4]; 4 DAI): 67%
- mortality at 3.13 ppm ([4]; 7 DAI): 83%
- mortality at 3.13 ppm ([4]; 10 DAI): 87%
- mortality at 12.5 ppm ([4]; 1 DAI): 48%
- mortality at 12.5 ppm ([4]; 2 DAI): 67%
- mortality at 12.5 ppm ([4]; 4 DAI): 90%
- mortality at 12.5 ppm ([4]; 7 DAI): 100%
- mortality at 12.5 ppm ([4]; 10 DAI): 100%
- mortality at 50 ppm ([4]; 1 DAI): 55%
- mortality at 50 ppm ([4]; 2 DAI): 72%
- mortality at 50 ppm ([4]; 4 DAI): 98%
- mortality at 50 ppm ([4]; 7 DAI): 100%
- mortality at 50 ppm ([4]; 10 DAI): 100%
- mortality at 200 ppm ([4]; 1 DAI): 55%
- mortality at 200 ppm ([4]; 2 DAI): 72%
- mortality at 200 ppm ([4]; 4 DAI): 80%
- mortality at 200 ppm ([4]; 7 DAI): 100%
- mortality at 200 ppm ([4]; 10 DAI): 100%
- mortality at 500 ppm ([4]; 1 DAI): 63%
- mortality at 500 ppm ([4]; 2 DAI): 82%
- mortality at 500 ppm ([4]; 4 DAI): 98%
- mortality at 500 ppm ([4]; 7 DAI): 100%
- mortality at 500 ppm ([4]; 10 DAI): 100%
- mortality at 1000 ppm ([4]; 1 DAI): 87%
- mortality at 1000 ppm ([4]; 2 DAI): 90%
- mortality at 1000 ppm ([4]; 4 DAI): 100%
- mortality at 1000 ppm ([4]; 7 DAI): 100%
- mortality at 1000 ppm ([4]; 10 DAI): 100%
